The source made the active and inactive calls. The calls are words filed in the database; no cut-off is given here.
Experiments:
[1] = Cytotoxicity against human CEM cells assessed as cell count after 3 days; assay type: cell-based; conditions: CEM cells (CCRF-CEM)
[2] = system: Human immunodeficiency virus 1; assay: Binding affinity to recombinant HIV1 HxB2 gp-41 at 50 uM by surface plasmon resonance assay
[3] = Binding affinity to recombinant HIV1 3B gp-120 expressed in CHO cells at 50 uM by surface plasmon resonance assay; conditions: Human immunodeficiency virus 1
[4] = system: Human immunodeficiency virus 1; assay: Antiviral activity against HIV1 3B infected in human CEM cells assessed as inhibition of virus-induced giant cell formation after 4 to 5 days by microscopic analysis; assay type: functional, organism-based; conditions: CCRF-CEM; for EC50: Human immunodeficiency virus 1, 3B
[5] = system: Human immunodeficiency virus 2; assay: Antiviral activity against HIV2 ROD infected in human CEM cells assessed as inhibition of virus-induced giant cell formation after 4 to 5 days by microscopic analysis; assay type: functional, organism-based; conditions: Human immunodeficiency virus 2, ISOLATE ROD, CCRF-CEM
[6] = Selectivity index, ratio of CC50 for human CEM cells to EC50 for HIV1 3B; assay type: toxicity, cell-based, CCRF-CEM; conditions: read-out: Ratio CC50/EC50
[7] = system: Human immunodeficiency virus 1; assay: Antiviral activity against HIV1 NL4.3 infected in human MT4 cells assessed as inhibition of virus-induced cytopathic effect after 5 days by MTS/phenazine ethosulfate method; assay type: functional, organism-based; conditions: Human immunodeficiency virus 1, NL4.3, MT4, 120 h
[8] = system: Human immunodeficiency virus 1; assay: Antiviral activity against HIV1 3B infected in human MT4 cells assessed as inhibition of early viral infection to host cells by measuring p24 production at 10 uM treated 1 to 25 hrs of post infection by ELISA; assay type: functional, organism-based
[9] = Binding affinity to recombinant HIV1 3B gp-120 expressed in CHO cells by surface plasmon resonance assay; set-up: species or system Human immunodeficiency virus 1; conditions: read-out: Kd(app)

| Compound | CC50 at 72 h [1] | Activity [2] | Activity [3] | Activity [4] | EC50 [4] | EC50 [5] | selectivity ratio [6] | EC50 [7] | Activity [8] | Kd [9] |
| --- | --- | --- | --- | --- | --- | --- | --- | --- | --- | --- |
| O=C(CCC(CCC(=O)N[C@@H](Cc1c[nH]c2ccccc12)C(=O)O)(CCC(=O)N[C@@H](Cc1c[nH]c2ccccc12)C(=O)O)NC(=O)CN(CCN(CC(=O)NC(CCC(=O)N[C@@H](Cc1c[nH]c2ccccc12)C(=O)O)(CCC(=O)N[C@@H](Cc1c[nH]c2ccccc12)C(=O)O)CCC(=O)N[C@H](Cc1c[nH]c2ccccc12)C(=O)O)CC(=O)NC(CCC(=O)N[C@@H](Cc1c[nH]c2ccccc12)C(=O)O)(CCC(=O)N[C@H](Cc1c[nH]c2ccccc12)C(=O)O)CCC(=O)N[C@H](Cc1c[nH]c2ccccc12)C(=O)O)CC(=O)NC(CCC(=O)N[C@@H](Cc1c[nH]c2ccccc12)C(=O)O)(CCC(=O)N[C@H](Cc1c[nH]c2ccccc12)C(=O)O)CCC(=O)N[C@H](Cc1c[nH]c2ccccc12)C(=O)O)N[C@@H](Cc1c[nH]c2ccccc12)C(=O)O | > 30 µM | Active | Active | Dose-dependent effect | 11.3 µM | ≥ 30 µM | – | – | – | – |
| CCc1c(CC(=O)NC(CCC(=O)N[C@@H](Cc2c[nH]c3ccccc23)C(=O)O)(CCC(=O)N[C@@H](Cc2c[nH]c3ccccc23)C(=O)O)CCC(=O)N[C@H](Cc2c[nH]c3ccccc23)C(=O)O)c(CC)c(CC(=O)NC(CCC(=O)N[C@@H](Cc2c[nH]c3ccccc23)C(=O)O)(CCC(=O)N[C@H](Cc2c[nH]c3ccccc23)C(=O)O)CCC(=O)N[C@H](Cc2c[nH]c3ccccc23)C(=O)O)c(CC)c1CC(=O)NC(CCC(=O)N[C@@H](Cc1c[nH]c2ccccc12)C(=O)O)(CCC(=O)N[C@H](Cc1c[nH]c2ccccc12)C(=O)O)CCC(=O)N[C@H](Cc1c[nH]c2ccccc12)C(=O)O | > 100 µM | Active | Active | Dose-dependent effect | 6.2 µM | – | – | – | – | – |
| CN[C@@H]1[C@H](O[C@@H]2OC[C@@H](O)[C@H](O)[C@H]2O)[C@@H](O)[C@H](O[C@H]2c3cc(C)c(C(=O)N[C@H](C)C(=O)O)c(O)c3-c3c(cc4c(c3O)C(=O)c3cc(OC)cc(O)c3C4=O)[C@@H]2O)O[C@@H]1C [PRADIMICIN A] | > 100 µM | – | – | – | – | – | – | – | – | – |
| CCc1c(CC(=O)NC(CCC(=O)O)(CCC(=O)O)CCC(=O)O)c(CC)c(CC(=O)NC(CCC(=O)O)(CCC(=O)O)CCC(=O)O)c(CC)c1CC(=O)NC(CCC(=O)O)(CCC(=O)O)CCC(=O)O | > 250 µM | – | – | – | > 250 µM | > 250 µM | – | – | – | – |
| O=C(CCC(CCC(=O)N[C@@H](Cc1c[nH]c2ccccc12)C(=O)O)(CCC(=O)N[C@H](Cc1c[nH]c2ccccc12)C(=O)O)NC(=O)CCC(CCC(=O)NC(CCC(=O)N[C@@H](Cc1c[nH]c2ccccc12)C(=O)O)(CCC(=O)N[C@@H](Cc1c[nH]c2ccccc12)C(=O)O)CCC(=O)N[C@H](Cc1c[nH]c2ccccc12)C(=O)O)(CCC(=O)NC(CCC(=O)N[C@@H](Cc1c[nH]c2ccccc12)C(=O)O)(CCC(=O)N[C@H](Cc1c[nH]c2ccccc12)C(=O)O)CCC(=O)N[C@H](Cc1c[nH]c2ccccc12)C(=O)O)[N+](=O)[O-])N[C@@H](Cc1c[nH]c2ccccc12)C(=O)O | > 100 µM | Active | Active | Dose-dependent effect | 9.9 µM | 44 µM | – | – | – | – |
| O=C(CCC(CCC(=O)N[C@@H](Cc1c[nH]c2ccccc12)C(=O)O)(CCC(=O)N[C@H](Cc1c[nH]c2ccccc12)C(=O)O)NC(=O)[C@H]1C[C@@H](C(=O)NC(CCC(=O)N[C@@H](Cc2c[nH]c3ccccc23)C(=O)O)(CCC(=O)N[C@H](Cc2c[nH]c3ccccc23)C(=O)O)CCC(=O)N[C@H](Cc2c[nH]c3ccccc23)C(=O)O)C[C@@H](C(=O)NC(CCC(=O)N[C@@H](Cc2c[nH]c3ccccc23)C(=O)O)(CCC(=O)N[C@H](Cc2c[nH]c3ccccc23)C(=O)O)CCC(=O)N[C@H](Cc2c[nH]c3ccccc23)C(=O)O)C1)N[C@@H](Cc1c[nH]c2ccccc12)C(=O)O | > 250 µM | Active | Active | Dose-dependent effect | 4.5 µM | – | > 55 | 2 µM | – | – |
| O=C(CCC(CCC(=O)N[C@@H](Cc1c[nH]c2ccccc12)C(=O)O)(CCC(=O)N[C@H](Cc1c[nH]c2ccccc12)C(=O)O)NC(=O)c1cc(C(=O)NC(CCC(=O)N[C@@H](Cc2c[nH]c3ccccc23)C(=O)O)(CCC(=O)N[C@H](Cc2c[nH]c3ccccc23)C(=O)O)CCC(=O)N[C@H](Cc2c[nH]c3ccccc23)C(=O)O)cc(C(=O)NC(CCC(=O)N[C@@H](Cc2c[nH]c3ccccc23)C(=O)O)(CCC(=O)N[C@H](Cc2c[nH]c3ccccc23)C(=O)O)CCC(=O)N[C@H](Cc2c[nH]c3ccccc23)C(=O)O)c1)N[C@@H](Cc1c[nH]c2ccccc12)C(=O)O | 53 µM | Active | Active | Dose-dependent effect | 2.6 µM | – | – | 1.3 µM | – | – |
| O=C(CCC(CCC(=O)N[C@@H](Cc1c[nH]c2ccccc12)C(=O)O)(CCC(=O)N[C@H](Cc1c[nH]c2ccccc12)C(=O)O)NC(=O)CN(CC(=O)NC(CCC(=O)N[C@@H](Cc1c[nH]c2ccccc12)C(=O)O)(CCC(=O)N[C@H](Cc1c[nH]c2ccccc12)C(=O)O)CCC(=O)N[C@H](Cc1c[nH]c2ccccc12)C(=O)O)CC(=O)NC(CCC(=O)N[C@H](Cc1c[nH]c2ccccc12)C(=O)O)(CCC(=O)N[C@H](Cc1c[nH]c2ccccc12)C(=O)O)CCC(=O)N[C@H](Cc1c[nH]c2ccccc12)C(=O)O)N[C@@H](Cc1c[nH]c2ccccc12)C(=O)O | 59 µM | Active | Active | Dose-dependent effect | 3.2 µM | – | – | 2.5 µM | Active | – |
| C[C@H](Cn1cnc2c(N)ncnc21)OCP(=O)(O)O [TENOFOVIR ANHYDROUS] | > 100 µM | – | – | – | – | – | – | – | – | – |
| CCc1c(CNc2nc(N[C@@H](Cc3c[nH]c4ccccc34)C(=O)O)nc(N[C@@H](Cc3c[nH]c4ccccc34)C(=O)O)n2)c(CC)c(CNc2nc(N[C@@H](Cc3c[nH]c4ccccc34)C(=O)O)nc(N[C@@H](Cc3c[nH]c4ccccc34)C(=O)O)n2)c(CC)c1CNc1nc(N[C@@H](Cc2c[nH]c3ccccc23)C(=O)O)nc(N[C@@H](Cc2c[nH]c3ccccc23)C(=O)O)n1 | > 250 µM | – | – | – | – | – | – | – | – | 14 µM |
| O=C(O)CCC(CCC(=O)O)(CCC(=O)O)NC(=O)CN(CCN(CC(=O)NC(CCC(=O)O)(CCC(=O)O)CCC(=O)O)CC(=O)NC(CCC(=O)O)(CCC(=O)O)CCC(=O)O)CC(=O)NC(CCC(=O)O)(CCC(=O)O)CCC(=O)O | > 250 µM | – | – | – | > 250 µM | > 250 µM | – | – | – | – |
| O=C(O)CCC(CCC(=O)O)(CCC(=O)O)NC(=O)C[C@H]1C[C@@H](CC(=O)NC(CCC(=O)O)(CCC(=O)O)CCC(=O)O)C[C@@H](CC(=O)NC(CCC(=O)O)(CCC(=O)O)CCC(=O)O)C1 | > 250 µM | – | – | – | > 250 µM | > 250 µM | – | – | – | – |
